# Experimental data reported in patent publication US20220030913A1, “SUPPLEMENT FOR LIVESTOCK” (Hoxie Feedyard, LLC, priority 2020, published 2022).
# Columns and labels:
# liver abscesses = assay: 60 Day feeding study, liver abscess scores at slaughter; type: in vivo, cattle (crossbred steers); details: 60 day study
# Source text: (§1) Feeding trials were completed with a randomized block design utilizing 4 treatments and 13 replicates per treatment. The first 20 pens (block 1, 5 replicates per treatment group) were placed first, the second 20 pens (block 2, 5 replicates per treatment group) were placed […], and the last 12 pens (block 3, 3 replicates per treatment group) were placed last. All cattle were housed within one area of the feedyard.
# (§2) Crossbred steers (n=4,849) with an average weight of 590 kg+/−19.7 kg of various origins from the High Plains and Midwest were selected from within a northwest Kansas commercial feedyard. All cattle underwent the same receiving protocol and were placed in 200 head pens. All cattle were acclimated to feedlot rations and had been on feed a minimum of 60 days prior to trial enrollment. Starting rations during the initial 60 days included 75 mg/head/day tylosin (Tylan, Elanco Animal Health, Greenfield, Ind.) with 15 g/ton monensin (Rumensin, Elanco Animal Health, Greenfield, Ind.).
# (§3) At 60 days of feed, 2-200 head pens were systematically allocated to 4 pens of 100 head. Two pens of 200 head were sorted at the chute into 4-100 head pens at time of terminal implant. Each 200 head pen contributed 50 head to each of the 4 pens that would be eventually allocated to treatment. This was accomplished by systematic allocation of 5 head at a time to each of the trial pens. If 200 head counts were not exactly 100 head/pen, the final allocations were that the number of animals per treatment group were similar. Once the 4-100 head pens (1 replicate) were sorted, the pens of cattle were weighed by pen, a 4% pencil shrink was applied, and pens were randomly assigned to 1 of 4 treatments: (1) Positive control (MT) 75 mg/head/day tylosin (Tylan,® Elanco Animal Health, Greenfield, Ind.) and 185 mg/head/day monensin (Rumensin,® Elanco Animal Health, Greenfield, Ind.); (2) Negative control (NO MT) fed without Rumensin® or Tylan®; (3) Decoquinate (DECO) fed 275 to 325 mg/head/day (Deccox,® Zoetis, Parsippany, N.J.); or (4) 3 g/head/day Yucca schidigera (YS) (Micro-Aid,® DPI Global, Porterville, Calif.). All cattle received an identification tag specific to the trial. Caretakers and processing staff were blinded to treatment.
# (§4) At 60±4 days of feed, all pens of cattle were shipped to the same abattoir. Hot carcass weight was collected from the plant via scale on carcass rail. Liver abscess scores were assessed by USDA trained professionals and data were collected by third party trained professionals using the liver scoring system previously described by Brown et al. (1975): 0=no abscesses, A−=2-4 abscesses under 1 inch in diameter, A=1-2 abscesses greater than 1 inch in diameter and A+=abscesses greater than 2 inches in diameter, ruptured abscess, or adhesions to body wall. Yield grade and quality grade data were collected from the abattoir by a third party.
# (§5) Continuous variables were analyzed using PROC Glimmix (SAS 9.4, SAS Inst. Inc., Cary, N.C.). Models contained treatment as a fixed effect, block as a random effect, and pen as the experimental unit. Least squares means were compared using the PDIFF function of SAS and the Tukey-Kramer adjustment for multiple comparisons. Statistical significance was determined at P<0.05 with tendencies at 0.06>P<0.10. Liver abscess scores, yield grade, and incidence of Eimeria spss. were converted to pen level frequency percentages prior to analysis.
# [1] = 60 Day feeding study, carcass characteristics; type: in vivo, cattle (crossbred steers); details: 60 day study
# Source text: as §1, §2, §3, §4, §5
# Eimeria spp. = assay: 60 Day feeding study, qualitative fecal flotation for Eimeria; type: in vivo; details: fecal samples at 50 d of feed, samples positive for at least 1+ Eimeria
# Source text: At 60 days of feed, 2-200 head pens were systematically allocated to 4 pens of 100 head. Two pens of 200 head were sorted at the chute into 4-100 head pens at time of terminal implant. Each 200 head pen contributed 50 head to each of the 4 pens that would be eventually allocated to treatment. This was accomplished by systematic allocation of 5 head at a time to each of the trial pens. If 200 head counts were not exactly 100 head/pen, the final allocations were that the number of animals per treatment group were similar. […]
# Freshly voided fecal samples (n=10 per pen) were collected at 50 d of feed for fecal flotation to determine the presence of Eimeria spss. […] Qualitative fecal flotation measurements were measured on a scale of 1+ to 5+ with 1+ having <10 oocysts per slide, 3+ samples having 50-100 oocysts per slide, and 5+ having >500 oocysts/slide. This technique is considered semi-quantitative, with 3+ samples equivalent to approximately 50 oocysts/gram. […]
# Continuous variables were analyzed using PROC Glimmix (SAS 9.4, SAS Inst. Inc., Cary, N.C.). […] Statistical significance was determined at P<0.05 with tendencies at 0.06>P<0.10. […]
# [2] = 60 Day feeding study, cattle performance; type: in vivo, cattle (crossbred steers)
# Source text: as §1, §2, §3
# All treatment groups received the same base ration (Table 1) that was balanced to provide 14% crude protein DM, […] NEg (Table 1). Rations were prepared using a stationary batcher box (Feeding Systems, Inc., Columbus, Nebr.) and loaded onto mixer/delivery trucks with box-mounted scale (Rotomix Manufacturing, Dodge City, Kans.). Treatment rations were delivered twice daily (0800 and 1300) on separate trucks to prevent cross contamination of treatment rations.
# Data on cattle performance were derived from feedlot closeout reports after all pens of cattle were shipped to an abattoir. Daily dry matter intakes were recorded via bunk management personnel and entered into the computerized bunk management system. The average dry matter intake per pen over the 60-day period was retrieved from closeout data. Final body weight was calculated as (carcass weight/0.64). Average daily gain (ADG) was calculated on a pen basis using the equation ((Final body weight−Initial body weight)/days on feed). Feed conversion was calculated by dividing the […], then carcass adjusted G:F was calculated as the reciprocal of feed conversion.
# as §5, with “analysis. […]” for “analysis.”
smiles,measurement,setting,value
"CCCCCCCCCCOc1cc2c(O)c(C(=O)OCC)cnc2cc1OCC [DECO, decoquinate]",Total liver abscess,liver abscesses,"31.4^a, b %"
same,incidence of liver abscesses compared with other groups,liver abscesses; pairwise comparisons of least squares means,"higher than cattle in the MT group, but lower than cattle in the NO MT group"
same,A liver abscesses,liver abscesses; A = 1-2 abscesses greater than 1 inch,4.1%
same,A+ liver abscesses,"liver abscesses; A+ = abscesses greater than 2 inches, ruptured abscess or adhesions","19.68^a, b %"
same,A− liver abscesses,liver abscesses; A− = 2-4 abscesses under 1 inch,7.6%
same,Dressing yield,[1],"63.9^a, b %"
same,"HCW, rank among treatment groups",[1],intermediate
same,HCW,[1]; hot carcass weight,"435.8^a, b kg"
same,Choice,[1]; quality grade,83.5%
same,Prime,[1]; quality grade,2.4%
same,Select,[1]; quality grade,11.9%
same,Standard,[1]; quality grade,2.1%
same,YG1,"[1]; yield grade 1, pen level frequency","7.0^a, c %"
same,YG2,[1]; yield grade 2,33.8%
same,YG3,[1]; yield grade 3,40.8%
same,YG4,[1]; yield grade 4,17.1%
same,YG5,[1]; yield grade 5,1.3%
same,Eimeria spp. incidence,Eimeria spp.,5.0%
same,"final body weight, rank among treatment groups",[2]; 60 day study,intermediate
same,growth performance compared with MT group,[2]; 60 day study,more similar to cattle in the MT group
same,DMI,"[2]; steers, average daily dry matter intake over 60-day period","12.1^a, b kg"
same,Carcass adjusted G:F,"[2]; steers, last 60 days on feed",0.120 kg/kg
same,Carcass adjusted ADG,"[2]; steers, last 60 days on feed, pen basis","1.47^a, b kg"
same,Carcass adjusted final BW,"[2]; steers, treatment in ration for last 60 days, final BW = carcass weight/0.64","681.0^a, b kg"
